system: Key Broadleaf Weed and Crop Species; assay: Post-emergent Test II herbicidal activity (Table 5); format: in vivo; conditions: post-emergence, 336 h; ABUTH: velvetleaf (Abutilon theophrasti); 70 g ai/ha; post-emergent; 14 days after application; read-out: Visual Growth Reduction (%) 14 Days After Application ABUTH
In short: (§1)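 Foliar application at 187 L/ha to greenhouse-grown seedlings (first or second true leaf); subirrigation thereafter. Visual 0–100% injury at 14 d relative to untreated plants.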

Compound	pest or weed control at 70 g/ha
COC(=O)c1nc(-c2cc(F)c(Br)cc2F)nc(N)c1OC [Compound 2]	95 to 100%
Nc1cc(-c2cc(F)c(Br)cc2F)nc(C(=O)O)c1Cl [Compound 3]	95 to 100%

same assay, conditions: post-emergence, 336 h; ABUTH: velvetleaf (Abutilon theophrasti); 140 g ai/ha; post-emergent; 14 days after application; read-out: Visual Growth Reduction (%) 14 Days After Application ABUTH

Compound	pest or weed control at 140 g/ha
COC(=O)c1nc(-c2cc(F)c(Br)cc2F)nc(N)c1OC [Compound 2]	95 to 100%
Nc1cc(-c2cc(F)c(Br)cc2F)nc(C(=O)O)c1Cl [Compound 3]	95 to 100%

same assay, conditions: post-emergence, 336 h; AMARE: redroot pigweed (Amaranthus retroflexus); 70 g ai/ha; post-emergent; 14 days after application; read-out: Visual Growth Reduction (%) 14 Days After Application AMARE

Compound	pest or weed control at 70 g/ha
COC(=O)c1nc(-c2cc(F)c(Br)cc2F)nc(N)c1OC [Compound 2]	85 to 94%
Nc1cc(-c2cc(F)c(Br)cc2F)nc(C(=O)O)c1Cl [Compound 3]	95 to 100%

same assay, conditions: post-emergence, 336 h; AMARE: redroot pigweed (Amaranthus retroflexus); 140 g ai/ha; post-emergent; 14 days after application; read-out: Visual Growth Reduction (%) 14 Days After Application AMARE

Compound	pest or weed control at 140 g/ha
COC(=O)c1nc(-c2cc(F)c(Br)cc2F)nc(N)c1OC [Compound 2]	85 to 94%
Nc1cc(-c2cc(F)c(Br)cc2F)nc(C(=O)O)c1Cl [Compound 3]	95 to 100%

same assay, conditions: post-emergence, 336 h; BRSNN: oilseed-rape, canola (Brassica napus); 70 g ai/ha; post-emergent; 14 days after application; read-out: Visual Growth Reduction (%) 14 Days After Application BRSNN

Compound	pest or weed control at 70 g/ha
COC(=O)c1nc(-c2cc(F)c(Br)cc2F)nc(N)c1OC [Compound 2]	95 to 100%
Nc1cc(-c2cc(F)c(Br)cc2F)nc(C(=O)O)c1Cl [Compound 3]	85 to 94%

same assay, conditions: post-emergence, 336 h; BRSNN: oilseed-rape, canola (Brassica napus); 140 g ai/ha; post-emergent; 14 days after application; read-out: Visual Growth Reduction (%) 14 Days After Application BRSNN

Compound	pest or weed control at 140 g/ha
COC(=O)c1nc(-c2cc(F)c(Br)cc2F)nc(N)c1OC [Compound 2]	95 to 100%
Nc1cc(-c2cc(F)c(Br)cc2F)nc(C(=O)O)c1Cl [Compound 3]	95 to 100%

same assay, conditions: post-emergence, 336 h; CHEAL: lambsquarters (Chenopodium album); 70 g ai/ha; post-emergent; 14 days after application; read-out: Visual Growth Reduction (%) 14 Days After Application CHEAL

Compound	pest or weed control at 70 g/ha
COC(=O)c1nc(-c2cc(F)c(Br)cc2F)nc(N)c1OC [Compound 2]	95 to 100%
Nc1cc(-c2cc(F)c(Br)cc2F)nc(C(=O)O)c1Cl [Compound 3]	95 to 100%

same assay, conditions: post-emergence, 336 h; CHEAL: lambsquarters (Chenopodium album); 140 g ai/ha; post-emergent; 14 days after application; read-out: Visual Growth Reduction (%) 14 Days After Application CHEAL

Compound	pest or weed control at 140 g/ha
COC(=O)c1nc(-c2cc(F)c(Br)cc2F)nc(N)c1OC [Compound 2]	95 to 100%
Nc1cc(-c2cc(F)c(Br)cc2F)nc(C(=O)O)c1Cl [Compound 3]	95 to 100%

same assay, conditions: post-emergence, 336 h; EPHHL: wild poinsettia (Euphorbia heterophylla); 70 g ai/ha; post-emergent; 14 days after application; read-out: Visual Growth Reduction (%) 14 Days After Application EPHHL

Compound	pest or weed control at 70 g/ha
COC(=O)c1nc(-c2cc(F)c(Br)cc2F)nc(N)c1OC [Compound 2]	95 to 100%
Nc1cc(-c2cc(F)c(Br)cc2F)nc(C(=O)O)c1Cl [Compound 3]	95 to 100%

same assay, conditions: post-emergence, 336 h; EPHHL: wild poinsettia (Euphorbia heterophylla); 140 g ai/ha; post-emergent; 14 days after application; read-out: Visual Growth Reduction (%) 14 Days After Application EPHHL

Compound	pest or weed control at 140 g/ha
COC(=O)c1nc(-c2cc(F)c(Br)cc2F)nc(N)c1OC [Compound 2]	95 to 100%
Nc1cc(-c2cc(F)c(Br)cc2F)nc(C(=O)O)c1Cl [Compound 3]	95 to 100%

same assay, conditions: post-emergence, 336 h; HELAN: sunflower (Helianthus annuus); 70 g ai/ha; post-emergent; 14 days after application; read-out: Visual Growth Reduction (%) 14 Days After Application HELAN

Compound	pest or weed control at 70 g/ha
COC(=O)c1nc(-c2cc(F)c(Br)cc2F)nc(N)c1OC [Compound 2]	95 to 100%
Nc1cc(-c2cc(F)c(Br)cc2F)nc(C(=O)O)c1Cl [Compound 3]	85 to 94%

same assay, conditions: post-emergence, 336 h; HELAN: sunflower (Helianthus annuus); 140 g ai/ha; post-emergent; 14 days after application; read-out: Visual Growth Reduction (%) 14 Days After Application HELAN

Compound	pest or weed control at 140 g/ha
COC(=O)c1nc(-c2cc(F)c(Br)cc2F)nc(N)c1OC [Compound 2]	95 to 100%
Nc1cc(-c2cc(F)c(Br)cc2F)nc(C(=O)O)c1Cl [Compound 3]	85 to 94%

same assay, conditions: post-emergence, 336 h; VIOTR: wild pansy (Viola tricolor); 70 g ai/ha; post-emergent; 14 days after application; read-out: Visual Growth Reduction (%) 14 Days After Application VIOTR

Compound	pest or weed control at 70 g/ha
COC(=O)c1nc(-c2cc(F)c(Br)cc2F)nc(N)c1OC [Compound 2]	30 to 44%
Nc1cc(-c2cc(F)c(Br)cc2F)nc(C(=O)O)c1Cl [Compound 3]	95 to 100%

same assay, conditions: post-emergence, 336 h; VIOTR: wild pansy (Viola tricolor); 140 g ai/ha; post-emergent; 14 days after application; read-out: Visual Growth Reduction (%) 14 Days After Application VIOTR

Compound	pest or weed control at 140 g/ha
COC(=O)c1nc(-c2cc(F)c(Br)cc2F)nc(N)c1OC [Compound 2]	95 to 100%
Nc1cc(-c2cc(F)c(Br)cc2F)nc(C(=O)O)c1Cl [Compound 3]	95 to 100%

system: not given; assay: not given; conditions: not given

melting point	Compound
186 to 187 °C	COC(=O)c1nc(-c2cc(F)c(Br)cc2F)nc(N)c1OC [Compound 2]
172 to 174 °C	Nc1cc(-c2cc(F)c(Br)cc2F)nc(C(=O)O)c1Cl [Compound 3]

system: Key Grass and Sedge Weeds as well as Grass Crops; assay: Post-emergent Test II herbicidal activity (Table 6); format: in vivo; conditions: Triticum aestivum, post-emergence, 336 h, TRZSS (wheat), application rate 70 g ai/ha, read-out: Visual Growth Reduction (%) 14 Days After Application, TRZSS
In short: as §1

Compound	pest or weed control at 70 g/ha
COC(=O)c1nc(-c2cc(F)c(Br)cc2F)nc(N)c1OC [Compound 2]	45 to 59%
Nc1cc(-c2cc(F)c(Br)cc2F)nc(C(=O)O)c1Cl [Compound 3]	60 to 74%

same assay, conditions: Triticum aestivum, post-emergence, 336 h, TRZSS (wheat), application rate 140 g ai/ha, read-out: Visual Growth Reduction (%) 14 Days After Application, TRZSS

Compound	pest or weed control at 140 g/ha
COC(=O)c1nc(-c2cc(F)c(Br)cc2F)nc(N)c1OC [Compound 2]	45 to 59%
Nc1cc(-c2cc(F)c(Br)cc2F)nc(C(=O)O)c1Cl [Compound 3]	60 to 74%

same assay, conditions: post-emergence, 336 h, CYPES: yellow nutsedge (Cyperus esculentus), application rate 70 g ai/ha, read-out: Visual Growth Reduction (%) 14 Days After Application, CYPES

Compound	pest or weed control at 70 g/ha
COC(=O)c1nc(-c2cc(F)c(Br)cc2F)nc(N)c1OC [Compound 2]	60 to 74%
Nc1cc(-c2cc(F)c(Br)cc2F)nc(C(=O)O)c1Cl [Compound 3]	95 to 100%

same assay, conditions: post-emergence, 336 h, CYPES: yellow nutsedge (Cyperus esculentus), application rate 140 g ai/ha, read-out: Visual Growth Reduction (%) 14 Days After Application, CYPES

Compound	pest or weed control at 140 g/ha
COC(=O)c1nc(-c2cc(F)c(Br)cc2F)nc(N)c1OC [Compound 2]	60 to 74%
Nc1cc(-c2cc(F)c(Br)cc2F)nc(C(=O)O)c1Cl [Compound 3]	95 to 100%

same assay, conditions: post-emergence, 336 h, DIGSA: crabgrass (Digitaria sanguinalis), application rate 70 g ai/ha, read-out: Visual Growth Reduction (%) 14 Days After Application, DIGSA

Compound	pest or weed control at 70 g/ha
Nc1cc(-c2cc(F)c(Br)cc2F)nc(C(=O)O)c1Cl [Compound 3]	75 to 84%

same assay, conditions: post-emergence, 336 h, DIGSA: crabgrass (Digitaria sanguinalis), application rate 140 g ai/ha, read-out: Visual Growth Reduction (%) 14 Days After Application, DIGSA

Compound	pest or weed control at 140 g/ha
COC(=O)c1nc(-c2cc(F)c(Br)cc2F)nc(N)c1OC [Compound 2]	60 to 74%
Nc1cc(-c2cc(F)c(Br)cc2F)nc(C(=O)O)c1Cl [Compound 3]	85 to 94%

same assay, conditions: post-emergence, 336 h, ECHCG: barnyardgrass (Echinochloa crus-galli), application rate 70 g ai/ha, read-out: Visual Growth Reduction (%) 14 Days After Application, ECHCG

Compound	pest or weed control at 70 g/ha
COC(=O)c1nc(-c2cc(F)c(Br)cc2F)nc(N)c1OC [Compound 2]	60 to 74%
Nc1cc(-c2cc(F)c(Br)cc2F)nc(C(=O)O)c1Cl [Compound 3]	85 to 94%

same assay, conditions: post-emergence, 336 h, ECHCG: barnyardgrass (Echinochloa crus-galli), application rate 140 g ai/ha, read-out: Visual Growth Reduction (%) 14 Days After Application, ECHCG

Compound	pest or weed control at 140 g/ha
COC(=O)c1nc(-c2cc(F)c(Br)cc2F)nc(N)c1OC [Compound 2]	60 to 74%
Nc1cc(-c2cc(F)c(Br)cc2F)nc(C(=O)O)c1Cl [Compound 3]	85 to 94%

same assay, conditions: post-emergence, 336 h, ORYSA: rice (Oryza sativa), application rate 70 g ai/ha, read-out: Visual Growth Reduction (%) 14 Days After Application, ORYSA

Compound	pest or weed control at 70 g/ha
COC(=O)c1nc(-c2cc(F)c(Br)cc2F)nc(N)c1OC [Compound 2]	0 to 29%
Nc1cc(-c2cc(F)c(Br)cc2F)nc(C(=O)O)c1Cl [Compound 3]	30 to 44%

same assay, conditions: post-emergence, 336 h, ORYSA: rice (Oryza sativa), application rate 140 g ai/ha, read-out: Visual Growth Reduction (%) 14 Days After Application, ORYSA

Compound	pest or weed control at 140 g/ha
COC(=O)c1nc(-c2cc(F)c(Br)cc2F)nc(N)c1OC [Compound 2]	0 to 29%
Nc1cc(-c2cc(F)c(Br)cc2F)nc(C(=O)O)c1Cl [Compound 3]	45 to 59%

same assay, conditions: post-emergence, 336 h, SETFA: giant foxtail (Setaria faberi), application rate 70 g ai/ha, read-out: Visual Growth Reduction (%) 14 Days After Application, SETFA

Compound	pest or weed control at 70 g/ha
COC(=O)c1nc(-c2cc(F)c(Br)cc2F)nc(N)c1OC [Compound 2]	45 to 59%
Nc1cc(-c2cc(F)c(Br)cc2F)nc(C(=O)O)c1Cl [Compound 3]	95 to 100%

same assay, conditions: post-emergence, 336 h, SETFA: giant foxtail (Setaria faberi), application rate 140 g ai/ha, read-out: Visual Growth Reduction (%) 14 Days After Application, SETFA

Compound	pest or weed control at 140 g/ha
COC(=O)c1nc(-c2cc(F)c(Br)cc2F)nc(N)c1OC [Compound 2]	60 to 74%
Nc1cc(-c2cc(F)c(Br)cc2F)nc(C(=O)O)c1Cl [Compound 3]	95 to 100%

same assay, conditions: post-emergence, 336 h, SORVU: grain sorghum (Sorghum vulgare), application rate 70 g ai/ha, read-out: Visual Growth Reduction (%) 14 Days After Application, SORVU

Compound	pest or weed control at 70 g/ha
COC(=O)c1nc(-c2cc(F)c(Br)cc2F)nc(N)c1OC [Compound 2]	30 to 44%
Nc1cc(-c2cc(F)c(Br)cc2F)nc(C(=O)O)c1Cl [Compound 3]	85 to 94%

same assay, conditions: post-emergence, 336 h, SORVU: grain sorghum (Sorghum vulgare), application rate 140 g ai/ha, read-out: Visual Growth Reduction (%) 14 Days After Application, SORVU

Compound	pest or weed control at 140 g/ha
COC(=O)c1nc(-c2cc(F)c(Br)cc2F)nc(N)c1OC [Compound 2]	60 to 74%
Nc1cc(-c2cc(F)c(Br)cc2F)nc(C(=O)O)c1Cl [Compound 3]	85 to 94%

same assay, conditions: post-emergence, 336 h, ZEAMX: maize, corn (Zea mays), application rate 70 g ai/ha, read-out: Visual Growth Reduction (%) 14 Days After Application, ZEAMX

Compound	pest or weed control at 70 g/ha
COC(=O)c1nc(-c2cc(F)c(Br)cc2F)nc(N)c1OC [Compound 2]	75 to 84%
Nc1cc(-c2cc(F)c(Br)cc2F)nc(C(=O)O)c1Cl [Compound 3]	85 to 94%

same assay, conditions: post-emergence, 336 h, ZEAMX: maize, corn (Zea mays), application rate 140 g ai/ha, read-out: Visual Growth Reduction (%) 14 Days After Application, ZEAMX

Compound	pest or weed control at 140 g/ha
COC(=O)c1nc(-c2cc(F)c(Br)cc2F)nc(N)c1OC [Compound 2]	75 to 84%
Nc1cc(-c2cc(F)c(Br)cc2F)nc(C(=O)O)c1Cl [Compound 3]	85 to 94%

Source: US9113629B2, “4-amino-6-(4-substituted-phenyl)-picolinates and 6-amino-2-(4-substituted-phenyl)-pyrimidine-4-carboxylates and their use as herbicides” (DOW AGROSCIENCES LLC, priority 2013, dated 2015)
